# From patent publication US20070141673A1, “Tool for quantitative real-time analysis of viral gene expression dynamics in single living cells” (priority 2005, published 2007)
# Experiments:
# [1] = tested on: HIV-1 VSV-G pseudotype (NL4.3-luc) in MDM cells; format: cell-based
# [2] = tested on: HIV-1 VSV-G pseudotype (NL4.3-luc) in MDM cells; format: cell-based; remark: listed apart in the source
# [3] = tested on: HIV-1 VSV-G pseudotype (NL4.3-luc) in MDM cells; format: cell-based; remark: listed apart in the source
# [4] = tested on: HIV-1 VSV-G pseudotype (NL4.3-luc) in CD4 T cells; format: cell-based
# CD4 T cells = experiment: Flow-cytometry analysis of activation markers CD25 and CD69; format: cell-based, human; settings: PHA treatment during three days before infection
compound,measurement,setting,value
"CCCCCCCCCCCCCC(=O)O[C@@H]1[C@@H](C)[C@@]2(O)[C@@H](C=C(CO)C[C@]3(O)C(=O)C(C)=C[C@@H]23)[C@@H]2C(C)(C)[C@]12OC(C)=O [PMA, phorbol 12-myristate 13-acetate]",time after stimulation at which bioluminescence signal began to increase,[1],4 h
"O=C(O)C(=O)CC(=O)c1cccn1Cc1ccc(F)cc1 [L-731,988]",luciferase activity in cell lysates,[2],reduced in a dose-dependent manner
same,number of cells emitting bioluminescence,[3],reduction in the number of cells emitting bioluminescence
same,number of photons emitted per individual cell,[3],significant reduction in the number of photons emitted per individual cell
same,overall averaged bioluminescence intensity,[3],decreased
phytohemagglutinin [PHA],duration of increase of photon emission until stable plateau level,[4],4 h
same,positive lymphocytes (bioluminescence) in cells treated before infection,[4],abundant numbers of positive lymphocytes
same,time after mitogen stimulation at which photon emission began to be detected in formerly negative cells,[4],8 h
same,global activation of CD4 T cells,CD4 T cells,> 98%
